Experimental data as given in patent US7754718B2 (priority 2004, dated 2010).
Read-outs that look alike come from different tables or passages of the source.

Key:
EBV = test: In vitro antiviral assay for EBV; assay type: cell-based, Epstein-Barr Virus; conditions: human gammaherpesvirus 4, read-out: Antiviral Activities (EC50, μM) EBV
Description: (§1) The antiviral assays for HBV, (Doong et al., 1991, Proc. Natl. Acad. Sci. U.S.A. 88:8495-8499) HSV-1, (Bastow et al., 1983, Antimicrob. Agents Chemother. 23: 914-917) HSV-2, (Bastow et al., 1983, Antimicrob. Agents Chemother. 23:914-917) EBV, (Yao et al., 1993, Antimicrob. Agents Chemother. 37:1420-1425), CMV (Andreoni et al., 2002, J. Med. Virol. 67:33-40) and HIV (Mellors et al., 1992, Mol. Pharmacol. 41: 446-451) were performed according to the previously reported procedures. Anti-HCV activities were tested in Huh-Luc/neo cell line. Cells were seeded into 48-well plates and grown until confluent. Different concentrations of drugs were added into media (DMEM, 10% dFBS) and incubated for 3 days. At the end of 3-day treatment, medium were removed and 50 μl of Passive lysis buffer (Promega) were added. Cell lysate was shaken at room temperature for 15 min. 30 μl/well of cell lysate was transferred to another 96-well plate, 100 μl/well of luciferase activity assay substrate was added into plate and read by a luminometer (Amersham) immediately.

[1] = Cell cytotoxicity assay on MT-2 cells; assay type: cell-based; conditions: human, read-out: Cytotoxity (ID50, μM) MT-2
Description: (§2) Cytotoxicities of test compounds on MT-2 (Mellors et al., 1992 Mol. Pharmacol. 41:446-451) and CEM (Grove et al., 1995, Cancer Res. 55:3008-3011) cells were determined according to the previously reported procedures. Hepg2 cells were seeded at a density of 10^4 cells/ml/well in 24-well plates and cultured in MEME supplemented with 10% FBS at 37° C. and 5% CO2. Each test compound at different concentrations was added on the second day of the culture and the cells were incubated for another 3 days. At the end of the incubation period, the medium was removed and 0.5 ml of 0.5% methylene blue in 50% ethanol (v/v) was added to each well and set at room temperature for 30-60 minutes. The methylene blue was removed; the plates were washed with water and allowed to air dry. Once dry, 1% sarcosyl was added to dissolve the stained cell layer. The absorbance at 595 nm was measured with a microplate reader (Molecular Devices Corp. Sunnyvale, Calif.). The cytotoxicity to CEM cell was calculated as described previously (Grove et al., 1995, Cancer Res. 55 (14): 3008-3011).

[2] = Cell cytotoxicity assay on CEM cells; assay type: cell-based; conditions: human, read-out: Cytotoxity (ID50, μM) CEM
Description: as §2

HSV-2 = test: In vitro antiviral assay for HSV-2; assay type: cell-based, Herpes Simplex Virus 2; conditions: Human alphaherpesvirus 2, read-out: Antiviral Activities (EC50, μM) HSV-2
Description: as §1

HBV = test: In vitro antiviral assay for HBV (Table 1); assay type: cell-based, Hepatitis B virus; conditions: Hepatitis B virus, read-out: Antiviral Activities (EC50, μM) HBV
Description: as §1

HCV = test: Anti-HCV activity in Huh-Luc/neo cell line, luciferase activity after 3-day treatment; assay type: cell-based, Hepatitis C virus; conditions: Hepatitis C virus, 72 h; for inhibition at 10 µM / inhibition at 3 µM: read-out: HCV percent of inhibition; for EC50: read-out: Antiviral Activities (EC50, μM) HCV
Description: as §1

HIV = test: In vitro antiviral assay for HIV; assay type: cell-based, human immunodeficiency virus; conditions: Human immunodeficiency virus 1, read-out: Antiviral Activities (EC50, μM) HIV, in vitro; (T) after a value means toxic
Description: as §1

HSV-1 = test: In vitro antiviral assay for HSV-1; assay type: cell-based, Herpes Simplex Virus 1; conditions: Human alphaherpesvirus 1, read-out: Antiviral Activities (EC50, μM) HSV-1
Description: as §1

[3] = Huh-Luc/neo cells, 3 days, given as a bound only

## O=C1NCc2c1cc1c(Br)cc3c(c1c2-c1ccc2c(c1)OCO2)OCO3 [Compound 40, 10-Benzo[1,3]dioxol-5-yl-5-bromo-8,9-dihydro-1,3-dioxa-8-aza-dicyclopenta[a,g]naphthalen-7-one]
EBV
  EC50: > 20 µM
[1]
  IC50: 54 µM
[2]
  IC50: 38 µM
other
  melting point: 285 °C (dec.)
HSV-2
  EC50: > 20 µM
HBV
  EC50: > 20 µM
HCV; Huh-Luc/neo cells, 3 days
  inhibition at 10 µM: 32%
HIV
  EC50: > 54 µM
HSV-1
  EC50: 6.5 µM

## O=C1OCc2c1cc1c(I)cc3c(c1c2-c1ccc2c(c1)OCO2)OCO3 [Compound 39, 10-Benzo[1,3]dioxol-5-yl-5-iodo-9H-furo[3′,4′:6,7]naphtho[1,2-d][1,3]dioxol-7-one]
EBV
  EC50: > 10 µM
[1]
  IC50: 80 µM
[2]
  IC50: 70 µM
other
  melting point: 255 °C (dec.)
HSV-2
  EC50: > 25 µM
HBV
  EC50: > 40 µM
HCV; [3]
  EC50: > 10 µM
HIV
  EC50: > 80 µM
HSV-1
  EC50: > 25 µM

## O=c1[nH][nH]c(=O)c2c(-c3ccc4c(c3)OCO4)c3c4c(cc(Cl)c3cc12)OCO4 [Compound 41, 11-Benzo[1,3]dioxol-5-yl-5-chloro-8,9-dihydro-1,3-dioxa-8,9-diaza-cyclopenta[a]anthracene-7,10-dione]
EBV
  EC50: > 20 µM
[1]
  IC50: 30 µM
[2]
  IC50: > 100 µM
other
  melting point: 316 °C (dec.)
HSV-2
  EC50: > 40 µM
HBV
  EC50: > 10 µM
HCV; Huh-Luc/neo cells, 3 days
  inhibition at 10 µM: 60%
HIV
  EC50: > 30 µM
HSV-1
  EC50: 7 µM

## O=C1OCc2c1c(-c1ccc3c(c1)OCO3)c1c3c(ccc1c2O)OCO3 [Compound 34, 10-Benzo[1,3]dioxol-5-yl-6-hydroxy-7H-furo[3′,4′:6,7]naphtho[1,2-d][1,3]dioxol-9-one]
EBV
  EC50: > 10 µM
[1]
  IC50: 13 µM
[2]
  IC50: 31 µM
other
  melting point: 257 °C (dec.)
HSV-2
  EC50: 28 µM
HBV
  EC50: > 10 µM
HCV; [3]
  EC50: > 10 µM
HIV
  EC50: > 13 µM
HSV-1
  EC50: 23 µM

## O=C1OCc2c1cc1c(Br)cc3c(c1c2-c1ccc2c(c1)OCO2)OCO3 [Compound 38, 10-Benzo[1,3]dioxol-5-yl-5-bromo-9H-furo[3′,4′:6,7]naphtho[1,2-d][1,3]dioxol-7-one]
EBV
  EC50: > 15 µM
[1]
  IC50: > 100 µM
[2]
  IC50: 100 µM
other
  melting point: 256 °C (dec.)
HSV-2
  EC50: > 50 µM
HBV
  EC50: > 60 µM
HCV; [3]
  EC50: > 10 µM
HIV
  EC50: > 100 µM
HSV-1
  EC50: > 50 µM

## CN1Cc2c(cc3ccc4c(c3c2-c2ccc3c(c2)OCO3)OCO4)C1=O [Compound 19, 10-Benzo[1,3]dioxol-5-yl-8-methyl-8,9-dihydro-1,3-dioxa-8-aza-dicyclopenta[a,g]naphthalen-7-one]
EBV
  EC50: > 20 µM
[1]
  IC50: 8 µM
[2]
  IC50: 6 µM
other
  melting point: 234 to 236 °C
HSV-2
  EC50: 1 µM
HBV
  EC50: 1.6 µM
HCV; [3]
  EC50: > 3 µM
HIV
  EC50: > 8 µM
HSV-1
  EC50: 0.67 µM

## O=C(O)c1cc2ccc3c(c2c(-c2ccc4c(c2)OCO4)c1C(=O)O)OCO3 [Compound 32, 9-Benzo[1,3]dioxol-5-yl-naphtho[1,2-d][1,3]dioxole-7,8-dicarboxylic acid]
EBV
  EC50: > 20 µM
[1]
  IC50: > 100 µM
[2]
  IC50: > 100 µM
other
  melting point: 253 °C (dec.)
HSV-2
  EC50: > 50 µM
HBV
  EC50: > 20 µM
HCV; [3]
  EC50: > 10 µM
HIV
  EC50: > 100 µM
HSV-1
  EC50: > 50 µM

## O=C1c2cc3ccc4c(c3c(-c3ccc5c(c3)OCO5)c2CN1CCCO)OCO4 [Compound 21, 10-Benzo[1,3]dioxol-5-yl-8-(3-hydroxy-propyl)-8,9-dihydro-1,3-dioxa-8-aza-dicyclopenta[a,g]naphthalen-7-one]
EBV
  EC50: > 20 µM
[1]
  IC50: 22 µM
[2]
  IC50: 22 µM
other
  melting point: 213 to 215 °C
HSV-2
  EC50: 7 µM
HBV
  EC50: > 20 µM
HCV; Huh-Luc/neo cells, 3 days
  inhibition at 10 µM: 58%
HIV
  EC50: 5 µM
HSV-1
  EC50: 5 µM

## CN1Cc2cc3ccc4c(c3c(-c3ccc5c(c3)OCO5)c2C1=O)OCO4 [Compound 17, 10-Benzo[1,3]dioxol-5-yl-8-methyl-7,8-dihydro-1,3-dioxa-8-aza-dicyclopenta[a,g]naphthalen-9-one]
EBV
  EC50: > 20 µM
[1]
  IC50: 26 µM
[2]
  IC50: 27 µM
other
  melting point: 242 to 244 °C
HSV-2
  EC50: 14 µM
HBV
  EC50: > 10 µM
HCV; Huh-Luc/neo cells, 3 days
  inhibition at 3 µM: 29%
HIV
  EC50: > 26 µM
HSV-1
  EC50: 14 µM

## CN1C(=O)c2cc3ccc4c(c3c(-c3ccc5c(c3)OCO5)c2C1=O)OCO4 [Compound 23]
EBV
  EC50: > 20 µM
[1]
  IC50: > 100 µM
[2]
  IC50: > 100 µM
HSV-2
  EC50: > 50 µM
HBV
  EC50: > 10 µM
HCV
  EC50: > 10 µM
HIV
  EC50: > 100 µM
HSV-1
  EC50: > 50 µM

## O=C(OCCCOCc1ccccc1)c1cc2ccc3c(c2c(-c2ccc4c(c2)OCO4)c1COCc1ccccc1)OCO3 [Compound 6, 9-Benzo[1,3]dioxol-5-yl-8-benzyloxymethyl-naphtho[1,2-d][1,3]dioxole-7-carboxylic acid 3-benzyloxy-propyl ester]
EBV
  EC50: > 20 µM
[1]
  IC50: > 100 µM
[2]
  IC50: > 50 µM
HSV-2
  EC50: > 50 µM
HBV
  EC50: > 10 µM
HCV; Huh-Luc/neo cells, 3 days
  inhibition at 10 µM: 55%
HIV
  EC50: > 100 µM
HSV-1
  EC50: > 50 µM

## COC1=NC(=O)c2c1cc1ccc3c(c1c2-c1ccc2c(c1)OCO2)OCO3 [Compound 23, 10-Benzo[1,3]dioxol-5-yl-7-methoxy-1,3-dioxa-8-aza-dicyclopenta[a,g]naphthalen-9-one]
other
  melting point: 306 to 308 °C

## COc1ccc(-c2c(C(=O)O)c(C(N)=O)cc3ccc4c(c23)OCO4)cc1OC [Compound 15, 7-Carbamoyl-9-(3,4-dimethoxy-phenyl)-naphtho[1,2-d][1,3]dioxole-8-carboxylic acid]
EBV
  EC50: > 20 µM
[1]
  IC50: 10 µM
[2]
  IC50: 3 µM
HSV-2
  EC50: > 3 µM
HBV
  EC50: 0.8 µM
HCV; Huh-Luc/neo cells, 3 days
  inhibition at 3 µM: 64%
HIV
  EC50: > 10 µM
HSV-1
  EC50: 0.8 µM

## CNC(=O)c1cc2ccc3c(c2c(-c2ccc4c(c2)OCO4)c1C(=O)O)OCO3 [Compound 13, 9-Benzo[1,3]dioxol-5-yl-7-methylcarbamoyl-naphtho[1,2-d][1,3]dioxole-8-carboxylic acid]
EBV
  EC50: > 20 µM
[1]
  IC50: 26 µM
[2]
  IC50: 29 µM
HSV-2
  EC50: > 25 µM
HBV
  EC50: > 20 µM
HCV; [3]
  EC50: > 10 µM
HIV
  EC50: > 26 µM
HSV-1
  EC50: 12 µM

## CCOC(=O)c1c(C(=O)OCC)c(-c2ccc3c(c2)OCO3)c2c3c(ccc2c1OC)OCO3 [Compound 35, 9-Benzo[1,3]dioxol-5-yl-6-methoxy-naphtho[1,2-d][1,3]dioxole-7,8-dicarboxylic acid diethyl ester]
EBV
  EC50: > 20 µM
[1]
  IC50: 24 µM
[2]
  IC50: > 100 µM
HSV-2
  EC50: > 50 µM
HBV
  EC50: > 20 µM
HCV; Huh-Luc/neo cells, 3 days
  inhibition at 10 µM: 60%
HIV
  EC50: > 24 µM
HSV-1
  EC50: > 50 µM

## CC(=O)NN1Cc2c(cc3ccc4c(c3c2-c2ccc3c(c2)OCO3)OCO4)C1=O [Compound 26, N-(10-Benzo[1,3]dioxol-5-yl-7-oxo-7,9-dihydro-1,3-dioxa-8-aza-dicyclopenta[a,g]naphthalen-8-yl)-acetamide]
EBV
  EC50: 13 µM
[1]
  IC50: 7 µM
[2]
  IC50: 40 µM
HSV-2
  EC50: 10 µM
HBV
  EC50: 1 µM
HCV; [3]
  EC50: > 10 µM
HIV
  EC50: > 7 µM
HSV-1
  EC50: 5 µM
